# Laboratory results as given in publication PMC9042912, “T cell receptor and IL-2 signaling strength control memory CD8^+ T cell functional fitness via chromatin remodeling” (Nature Communications, 2022).
# Values joined by “and” are separate entries in the source; they are usually repeats but may differ in a detail not shown here. Equal entries are not always repeated. Where two headings read alike, the source gives them in different places. No end group written: not given here.
# Tests used:
# [1] = target: T1, H2-K^b (Mus musculus, UniProt P01901); experiment: cell-based
# T1 construct: RMA-S cells were added per well to a 96-well flat-bottom plate and incubated at 30 °C overnight; endogenous in cells; host or cells: RMA-S cells (TAP-deficient), obtained from Dr. Steve Porcelli
# T1 sequence (P01901 22-369): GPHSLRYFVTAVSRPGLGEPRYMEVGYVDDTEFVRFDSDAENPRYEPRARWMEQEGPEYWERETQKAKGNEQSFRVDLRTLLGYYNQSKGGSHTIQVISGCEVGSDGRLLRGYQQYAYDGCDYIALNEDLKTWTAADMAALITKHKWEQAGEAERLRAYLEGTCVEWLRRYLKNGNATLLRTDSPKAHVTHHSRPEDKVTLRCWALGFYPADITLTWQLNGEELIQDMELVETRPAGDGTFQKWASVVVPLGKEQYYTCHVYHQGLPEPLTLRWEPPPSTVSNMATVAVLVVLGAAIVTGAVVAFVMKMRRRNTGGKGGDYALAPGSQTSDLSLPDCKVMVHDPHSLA
# T1 sequence (P01887 21-119 partner): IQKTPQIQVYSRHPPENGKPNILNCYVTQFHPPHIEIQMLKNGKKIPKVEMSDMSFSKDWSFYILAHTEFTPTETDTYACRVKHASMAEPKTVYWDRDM
# [2] = test system: OT-I cells; assay type: in vivo, mouse; details: for % Il2ra mut/mut among OT-I / % WT among OT-I: individual values
# [3] = target: H2-D^b (Mus musculus, UniProt P01899); assay type: cell-based
# [4] = test system: OT-I, gBT-I, P14, L9.6 T cells; details: mouse
# Sequence of H2-D^b (P01899 25-362, one chain of several): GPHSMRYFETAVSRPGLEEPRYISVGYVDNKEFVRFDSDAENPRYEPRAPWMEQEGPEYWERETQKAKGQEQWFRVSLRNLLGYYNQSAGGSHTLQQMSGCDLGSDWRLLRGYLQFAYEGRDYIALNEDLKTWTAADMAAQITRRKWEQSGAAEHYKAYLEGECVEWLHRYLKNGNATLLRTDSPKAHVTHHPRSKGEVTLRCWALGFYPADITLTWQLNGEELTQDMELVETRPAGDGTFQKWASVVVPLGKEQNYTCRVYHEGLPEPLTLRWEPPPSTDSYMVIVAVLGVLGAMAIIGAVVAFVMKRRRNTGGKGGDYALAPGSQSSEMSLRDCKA
compound,measurement,setting,value
CC[C@H](C)[C@H](NC(=O)[C@@H](NC(=O)[C@@H](N)CO)[C@@H](C)CC)C(=O)N[C@@H](CC(N)=O)C(=O)N[C@@H](Cc1ccccc1)C(=O)N[C@@H](CCC(=O)O)C(=O)N[C@@H](CCCCN)C(=O)N[C@@H](CC(C)C)C(=O)O [N4],Kd,[1],111 nM
SIITFEKL [T4],Kd,[1],59 nM
SSIEFARL [gB498-505],Kd,[1],32 nM
SIIQFEKL [Q4],Kd,[1],65 nM
diphtheria toxin [DT],decrease of primary OT-I cell expansion,[2]; CD11c+ cell depletion 2 days after Lm-Ova infection,~ 50%
same,% Il2ra mut/mut among OT-I,[2]; Memory + DT,29.30% and 45.50% and 51.90% and 25.10% and 25.90% and 50.30% and 56.40%
same,% WT among OT-I,[2]; Memory + DT,70.10% and 54.40% and 47.80% and 74.30% and 73.60% and 49.50% and 43.40%
same,% Il2ra mut/mut among OT-I,[2]; Primary + DT,4.26% and 7.74% and 13.10% and 8.93% and 11.40% and 29.60% and 21.10% and 24.20% and 24.80% and 4.23%
same,% WT among OT-I,[2]; Primary + DT,91.80% and 86.30% and 90.50% and 87.80% and 89.00% and 69.30% and 77.20% and 73.40% and 64.60% and 95.20% and 95.30%
same,% OT-I,"[2]; depletion of CD11c+ cells in CD11c-DTR mice, compared with control group, each value one mouse (Suppl. Fig. 4B)",4.98% and 8.05% and 8.87% and 13.60%
KAVYNFATC [GP33-41],formation of stable complexes with D^b,[3],form stable MHC class I complexes
same,duration for which the Lm-expressed epitope induces naïve T cell proliferation in vivo,[4],~ 2 days
